Series [1] deals with Mycobacteroides abscessus. The series can be described thus: Antimycobacterial activity against Mycobacterium abscessus […] assessed as decrease in mycolic acid transfer onto cell wall trehalose dimycolate incubated for 3 hrs in presence of [1,2-14C]-acetate by TLC analysis. In kind it is functional, organism-based.
Series [2] in a line: Metabolic stability in mouse liver S9 fraction assessed as parent compound remaining at 5 ug/ml after 90 mins in presence of NADPH by LC/MS analysis. Conditions: s9, 1.5 h, dose 5 µg/ml. The series is classed as ADME, subcellular.
Series [3] can be described thus: Cytotoxicity against mouse HEI-OC1 cells assessed as viable cells upto 100 uM measured after 72 hrs by MTT assay. The conditions noted are these: hei-oc1, 72 h. The series is classed as toxicity, cell-based. (In general: Formazan colour is commonly taken as a measure of viable cells.)
In series [4] the test system is Mycobacteroides abscessus. The series can be described thus: Antimycobacterial activity against Mycobacterium Mycobacterium abscessus ATCC 19977 harbouring mmpL3 I306S mutant gene assessed as inhibition of bacterial growth by visual analysis. The series is classed as functional.
The subject of series [5] is Mycobacterium tuberculosis. The series can be described thus: Displacement of North 114 from Mycobacterium tuberculosis wild type MmpL3 expressed in Mycobacterium smegmatis upto 8 uM incubated for 15 mins by flow cytometry based competition binding assay. On the technique in general: In flow cytometry, cells or beads pass a laser one at a time.
The subject of series [6] is Mycobacterium intracellulare. The series can be described thus: Antimycobacterial activity against Mycobacterium intracellulare 1956 assessed as inhibition of bacterial growth by visual analysis. In kind it is functional.
Series [7] is described as follows: Permeability of the compound by PAMPA method. In kind it is ADME.
Series [8] relates to Mycolicibacterium fortuitum. The series can be described thus: Antimycobacterial activity against Mycobacterium fortuitum ATCC 6841 assessed as inhibition of bacterial growth by visual analysis. In kind it is functional.
The nature of series [9]: Kinetic solubility of compound at pH 7.4 incubated for 6 hrs by LC-MS/MS analysis. In kind it is physicochemical. The conditions noted are these: buffer, read-out: Kinetic_solubility.
The nature of series [10]: Metabolic stability in human liver S9 fraction assessed as parent compound remaining at 5 ug/ml after 90 mins in presence of NADPH by LC/MS analysis. The conditions noted are these: s9, 1.5 h, dose 5 µg/ml. The series is classed as ADME, subcellular.
The test system of series [11] is Mycobacterium kansasii. The series can be described thus: Antimycobacterial activity against Mycobacterium kansasii ATCC 1279 assessed as inhibition of bacterial growth by visual analysis. In kind it is functional.
Series [12] has as its system Mycobacterium tuberculosis. The series can be described thus: Antimycobacterial activity against Mycobacterium tuberculosis H37Rv mc2 6206 assessed as inhibition of bacterial growth measured after 7 days by visual analysis. In kind it is functional. The conditions noted are these: H37Rv mc2 6206, 168 h, time 7 day.
In series [13] the test system is Mycobacterium intracellulare subsp. chimaera. The series can be described thus: Antimycobacterial activity against Mycobacterium intracellulare subsp. chimaera 1501948 assessed as inhibition of bacterial growth by visual analysis. In kind it is functional.
Series [14] is described as follows: Cytotoxicity against human WI26VA4 cells assessed as inhibition of cell growth measured after 72 hrs by MTT assay. The series is classed as toxicity, cell-based.
The nature of series [15]: Binding affinity to Mycobacterium tuberculosis MmpL3 assessed as equilibrium constant by SPR analysis. For orientation: SPR reads the build-up and loss of mass on a sensor chip optically.
The subject of series [16] is Mycobacteroides abscessus. The series can be described thus: Antimycobacterial activity against Mycobacterium abscessus ATCC 19977 harbouring mmpL3 A309P mutant gene assessed as inhibition of bacterial growth by visual analysis. The series is classed as functional.
In series [17] the test system is Mycobacteroides abscessus. The series can be described thus: Antimycobacterial activity against Mycobacterium abscessus ATCC 19977 harbouring mmpL3 L551S mutant gene assessed as inhibition of bacterial growth by visual analysis. In kind it is functional.
A short description of series [18]: Binding affinity to Mycobacterium tuberculosis MmpL3 assessed as dissociation constant by SPR analysis.
Series [19] is described as follows: Plasma protein binding in human at 10 ug/ml incubated for 4 hrs under shaking condition by LC/MS/MS analysis. The conditions noted are these: at 10 µg/mL, read-out: PPB (converted). The series is classed as ADME, cell-free.
Series [20] in a line: Selectivity index, ratio of IC50 for Cytotoxicity against human WI26VA4 cells to MIC for antimycobacterial activity against Mycobacterium abscessus […]. The series is classed as toxicity, cell-based. The conditions noted are these: read-out: Selectivity Index.
Series [21] in a line: Selectivity index, ratio of IC50 for Cytotoxicity against human WI26VA4 cells to MIC for antimycobacterial activity against Mycobacterium tuberculosis H37Rv mc2 6206. The series is classed as toxicity, cell-based. The conditions noted are these: read-out: Selectivity Index.
Series [22] concerns Mycobacteroides abscessus. The series can be described thus: Antimycobacterial activity against Mycobacterium abscessus ATCC 19977 harbouring wild type mmpL3 gene assessed as inhibition of bacterial growth by visual analysis. The series is classed as functional.
For series [23], the system named is Mycobacteroides chelonae. The series can be described thus: Antimycobacterial activity against Mycobacteroides chelonae ATCC 35752 assessed as inhibition of bacterial growth by visual analysis. The series is classed as functional.
In series [24] the test system is Mycobacteroides abscessus. The series can be described thus: Antimycobacterial activity against Mycobacterium abscessus […] assessed as inhibition of mycolic acid biosynthesis at 1 to 10 times of MIC incubated for 3 hrs in presence of [1,2-14C]-acetate by TLC analysis. The series is classed as functional, organism-based.
For series [25], the system named is Mycobacteroides abscessus. The series can be described thus: Antimycobacterial activity against Mycobacterium abscessus […] assessed as decrease in mycolic acid transfer onto cell wall arabinogalactan incubated for 3 hrs in presence of [1,2-14C]-acetate by TLC analysis. In kind it is functional, organism-based.
Series [26] in a line: Antimycobacterial activity against Mycobacterium avium subsp. avium 2585R assessed as inhibition of bacterial growth by visual analysis. In kind it is functional.
The subject of series [27] is THP-1. The series can be described thus: Cytotoxicity against human THP-1 cells assessed as inhibition of cell growth measured after 72 hrs by MTT assay. The series is classed as toxicity, cell-based.
For series [28], the system named is Mycobacteroides abscessus. The series can be described thus: Antimycobacterial activity against Mycobacterium abscessus […] assessed as inhibition of bacterial growth measured after 5 days by visual analysis. In kind it is functional. The conditions noted are these: 120 h, time 5 day.
Series [29] in a line: Cytotoxicity against mouse HEI-OC1 cells assessed as inhibition of cell growth measured after 72 hrs by MTT assay. The series is classed as toxicity, cell-based.

Each structure is given as a SMILES string. ≈ marks a conversion by molar mass, not a printed value. Calls of active or inactive are those of the source. The rule behind the calls is not given here.

Broadly, the MIC is the lowest concentration that inhibits growth of the organism. The IC50 is the concentration needed to halve the response being measured.

Consider `O=C(CNc1cccc(OC(F)(F)F)c1)NC12CC3CC(CC(C3)C1)C2`, for which the result in series [1], in series [5] and in series [25] was Active. Moreover, the values for the t1/2 in series [2] and in series [10] were 0.4 h and 0.7 h, respectively. In series [3], the Activity is on record as 70.8%. The MIC in series [4] was 1 µg/mL (≈ 2.71 µM); in series [6], 8 µg/mL (≈ 21.7 µM); in series [8], 2 µg/mL (≈ 5.43 µM); in series [11], 8 µg/mL (≈ 21.7 µM); in series [12], 0.25 µg/mL (≈ 0.679 µM); in series [13], 16 µg/mL (≈ 43.4 µM). Further, the MIC in series [16] was greater than 64 µg/mL; in [17], 0.5 µg/mL (≈ 1.36 µM); in [22], 0.5 µg/mL (≈ 1.36 µM); in series [23] it was 4 µg/mL (≈ 10.9 µM); in series [26], 8 µg/mL (≈ 21.7 µM). In addition, in series [7], the permeability is given as 3.61 10^-6 cm/s. In series [9], the solubility kinetic at 6 h turned out to be 20.4 µg/mL (≈ 55.4 µM). In addition, in series [14], the IC50 is greater than 20 µg/mL. The results for the Kd in [15] and in series [18] were 780 µM and 1.23 s⁻¹, respectively. Also, in series [19], the fraction unbound at 4 h, 10 ug/ml is 0.051. The selectivity ratio in series [20] was greater than 40; in series [21], greater than 80. For the same compound, the result in series [24] was inactive.

In the case of `Cc1cc(C)c2cc(C(=O)NC3CCCCCCC3)[nH]c2c1`, the permeability in series [7] is 0.18 10^-6 cm/s. For the same compound, the solubility kinetic at 6 h in series [9] is 1.6 µg/mL (≈ 5.36 µM). The t1/2 in [10] was 0.5 h. In addition, the results for the MIC in [12] and in series [28] were 0.02 µg/mL (≈ 0.067 µM) and 0.063 µg/mL (≈ 0.211 µM), respectively. Besides, the IC50 in [27] was greater than 14.9 µg/mL. The fraction unbound at 4 h, 10 ug/ml in [19] is 0.018. Besides, the figures for the selectivity ratio in series [20] and in series [21] were greater than 237 and greater than 764, respectively.

As to `C[C@@H]1[C@H]2C[C@@H](C[C@H]1NC(=O)CNc1cccc(Cl)c1)C2(C)C`, the result in series [1], in series [5] and in [25] was Active. For the same compound, the t1/2 in series [2] came to 4.6 h; in series [10] it was 5.3 h. In [29], the IC50 at 72 h is 14.1 µM. The MIC is 1 µg/mL (≈ 3.12 µM) in series [4]; 8 µg/mL (≈ 24.9 µM) in series [6]; 2 µg/mL (≈ 6.23 µM) in series [8]; 8 µg/mL (≈ 24.9 µM) in series [11]; 0.25 µg/mL (≈ 0.779 µM) in series [12]; 16 µg/mL (≈ 49.9 µM) in series [13]. For the same compound, the MIC in series [16] is greater than 64 µg/mL; in series [17], 0.5 µg/mL (≈ 1.56 µM); in [22], 0.5 µg/mL (≈ 1.56 µM); in series [23], 4 µg/mL (≈ 12.5 µM); in series [26], 8 µg/mL (≈ 24.9 µM). In addition, the permeability in [7] was 1.33 10^-6 cm/s. For the same compound, the solubility kinetic at 6 h in series [9] came out at 16.3 µg/mL (≈ 50.8 µM). Also, the IC50 in series [14] was greater than 20 µg/mL. Also, the Kd in [15] was found to be 800 µM; in series [18], 1.22 s⁻¹. Besides, in [19], the fraction unbound at 4 h, 10 ug/ml is 0.059. Further, the selectivity ratio was greater than 40 in series [20] and greater than 80 in [21]. The result in series [24] was inactive.

Turning to `CC[C@H]1OC(=O)[C@H](C)[C@@H](O[C@H]2C[C@@](C)(OC)[C@@H](O)[C@H](C)O2)[C@H](C)[C@@H](O[C@@H]2O[C@H](C)C[C@H](N(C)C)[C@H]2O)[C@](C)(OC)C[C@@H](C)C(=O)[C@H](C)[C@@H](O)[C@]1(C)O` [CLARITHROMYCIN], the MIC worked out at 4 µg/mL (≈ 5.35 µM) in series [4], 4 µg/mL (≈ 5.35 µM) in [16] and 8 µg/mL (≈ 10.7 µM) in [17].

`C[C@@H]1[C@H]2C[C@@H](C[C@H]1NC(=O)CNc1ccccc1Cl)C2(C)C`: the t1/2 stood at 8.6 h in series [2] and 5.1 h in series [10]. Also, the MIC is 16 µg/mL (≈ 49.9 µM) in series [6]; 2 µg/mL (≈ 6.23 µM) in series [8]; 16 µg/mL (≈ 49.9 µM) in series [11]; 0.25 µg/mL (≈ 0.779 µM) in series [12]; greater than 64 µg/mL in [13]; 4 µg/mL (≈ 12.5 µM) in series [23]. Further, the MIC in [26] came out at 16 µg/mL (≈ 49.9 µM); in series [28], 1 µg/mL (≈ 3.12 µM). Moreover, the permeability in series [7] is recorded as 0.38 10^-6 cm/s. For the same compound, in series [9], the solubility kinetic at 6 h came out at 14.3 µg/mL (≈ 44.6 µM). Also, in [14], the IC50 was greater than 20 µg/mL. For the same compound, in series [19], the fraction unbound at 4 h, 10 ug/ml is 0.045. Besides, the selectivity ratio in series [20] was greater than 20; in [21], greater than 80.

Values taken from ChEMBL document CHEMBL5316284, “Structural Determinants of Indole-2-carboxamides: Identification of Lead Acetamides with Pan Antimycobacterial Activity” (J Med Chem, 2023).
